# Measured values: patent US9085536B2, “Aconitine compounds, compositions, uses, and preparation thereof” (priority 2011, dated 2015)
# “Also recorded” adds a separate entry of the source. Read-outs that look alike come from different tables or passages of the source.
# Assays:
# Format in all cases: cell-based
# [1] = target: T1, rNaV1.4 expressed in CHO cells (Rattus norvegicus, UniProt P15390); experiment: Steady-state inactivation, whole-cell recording, Boltzmann fit
# T1 construct: expressed in transfected cells; host or cells: CHO cells
# Experimental: . The channels were modified by perfusing the cells with buffered solution containing aconitine at the given concentrations and then simple pulses (10 ms pulses to 0 mV from −100 mV holding potential) were recorded until the currents leveled to a steady value (typically ˜1000 pulses). Steady-state fast inactivation of the current was then determined by delivering 500 ms conditioning pulses to potentials ranging from −130 to −11 mV (7 my increments) immediately followed by a 10 ms test pulse to 0 mV to test the available current. The peak current measured during the test pulse was normalized to the maximum peak current recorded in the conditioning pulses. […] Midpoint voltage V0.5 represents the membrane potential at which half maximum current is observed; slope factor at midpoint k quantifies the rate at which the inactivation response occurs.
# [2] = target: T1, rNaV1.4 expressed in CHO cells; details: for reversibility of binding upon wash-off: wash-off experiments, Table 3 concentrations
# Experimental: […] […] It is noteworthy that little or no increase in current was observed during wash off when no depolarizing pulses were applied and peak current was measured as a function of time.
# Since the molecules bind to the open-state of the Nav channel their release also requires activation pulses. In typical experiments, buffered external solution was perfused and a pulse train sequence was applied to the patch-clamp until the current reached a steady-state for at least two minutes.
# [3] = target: T1, rNaV1.4 expressed in CHO cells; experiment: Na+ current block at steady state, whole-cell patch clamp with pulse trains; details: for Current measured at 20 μM (%) / Current measured at 75 μM (%): before wash-off; for depolarizing pulses required to reach steady-state block: 10 Hz pulse trains
# Experimental: Binding of aconitine to NaV is use-dependent and is known to result both in a left shift of the current-voltage (I-V) relationship and in partial block of the channel. […] To determine whether aconitine binding is reversible, two experiments were designed. First, as block by aconitine is known to be use dependent, peak current was measured as a function of pulse number in the presence of two different concentrations of aconitine. Since aconitine binds preferentially to the open state of the sodium channel, a pulse train was applied sequentially with a control pulse used to record peak current. The pulse train consisted of a series of 50 depolarizing pulses (from −100 mV holding potential to 0 mV, 10 ms duration) applied at 10 Hz frequency, while the control pulse consisted of a single depolarizing pulse (from −100 mV holding potential to 0 mV test potential, 10 ms duration).
# Pulse trains of 10 Hz frequency and control pulses were applied sequentially to cells expressing rNaV1.4, and currents elicited from the control pulse were recorded after each pulse train. This process was repeated until the current elicited from the control pulse had reached a steady state and was no longer decreasing with each additional pulse train. If block were irreversible, this steady state current would be expected to be independent of toxin concentration—the toxin would not be able to dissociate from its receptor, and the number of toxin molecules is much greater than the number of sodium channels (assuming a 100 μL chamber containing 1000 CHO cells, each expressing 10,000 sodium channels, at 50 μM concentration toxin molecules outnumber receptors by a factor of 3×10^8:1), therefore, all receptors would eventually reach the bound state.
# Block by aconitine is known to be use-dependent, therefore the use-dependence of the C14 derivatives of aconitine was evaluated. Peak Na current was measured as a function of pulse number in the presence of different concentrations of the molecules. […] Since aconitine binds preferentially to the open state of the sodium channel, a pulse train was applied sequentially with a control pulse used to record peak current. The pulse train consisted of a series of 50 depolarizing pulses (from −100 mV holding potential to 0 mV, 10 ms duration) applied at 10 Hz frequency, while the control pulse consisted of a single depolarizing pulse (from −100 mV holding potential to 0 mV test potential, 10 ms duration).
# Pulse trains of 10 Hz frequency and control pulses were applied sequentially to CHO cells expressing rNaV1.4, and currents elicited from the control pulse were recorded after each pulse train. This process was repeated until the current elicited from the control pulse had reached a steady state and was no longer decreasing with each additional pulse train. If block were irreversible, this steady state current would be expected to be independent of toxin concentration—the toxin would not be able to dissociate from its receptor, and the number of toxin molecules is much greater than the number of sodium channels, therefore, all receptors would eventually reach the bound state.
# The ability of the synthesized aconitine derivatives to block NaV channels was evaluated with patch-clamp experiments in the whole-cell configuration on CHO cells expressing rNaV1.4 heterologously. A buffer solution containing the toxin was applied to the cells, whole-cell Na^+ currents were recorded until the decreasing current reached a steady-state (300 to 3000 pulses, depending on the molecules and concentrations). The peak Na^+ currents were measured with a depolarizing test pulse (from −100 mV holding potential to 0 mV test potential, 10 ms duration).
# [4] = target: T1, rNaV1.4 expressed in CHO cells; experiment: Activation: current-voltage (I-V) and conductance-voltage (G-V) relationship, whole-cell recording
# Experimental: To determine if the shift in I-V relationship is affected by the aromaticity of the aconitine C14 benzoate, current-voltage relationships were recorded for control cells expressing NaV, those that had been modified by aconitine, and those that had been modified by aconitine C14-cyclohexanoate 4.8d. For the modified channels, solutions of 50 μM concentration of the respective toxins were perfused onto the cells, and then depolarizing pulses were applied until a steady state current was observed, generally requiring about 1000 pulses. At that time, current-voltage relationships were again recorded. […] A shift towards hyperpolarizing potentials is clearly observed in both cases. Currents recorded at −50 mV are highlighted for all three experiments.
# To determine the effect on current-voltage (I-V) relationship of the aconitine derivatives, whole cell currents were recorded in cells expressing NaV in the presence of aconitine derivatives. Control I-V plots were recorded with unmodified NaV1.4, to which were compared NaV channels modified by aconitine as well as by selected analogs. For the modified channels, solutions of the respective toxins were perfused onto the cells, and then depolarizing pulses were applied until a steady state current was observed, generally requiring about 1000 pulses. A sequence of test pulses was then recorded to determine the current-voltage relationships (using a step protocol in which CHO cells were depolarized for 10 ms from a holding potential of −100 mV to a range of potentials from −95 mV to +30 mV in 5 or 10 mV increments; peak currents were normalized to the maximum peak current and plotted against voltage).
# T1 sequence (P15390 whole entry): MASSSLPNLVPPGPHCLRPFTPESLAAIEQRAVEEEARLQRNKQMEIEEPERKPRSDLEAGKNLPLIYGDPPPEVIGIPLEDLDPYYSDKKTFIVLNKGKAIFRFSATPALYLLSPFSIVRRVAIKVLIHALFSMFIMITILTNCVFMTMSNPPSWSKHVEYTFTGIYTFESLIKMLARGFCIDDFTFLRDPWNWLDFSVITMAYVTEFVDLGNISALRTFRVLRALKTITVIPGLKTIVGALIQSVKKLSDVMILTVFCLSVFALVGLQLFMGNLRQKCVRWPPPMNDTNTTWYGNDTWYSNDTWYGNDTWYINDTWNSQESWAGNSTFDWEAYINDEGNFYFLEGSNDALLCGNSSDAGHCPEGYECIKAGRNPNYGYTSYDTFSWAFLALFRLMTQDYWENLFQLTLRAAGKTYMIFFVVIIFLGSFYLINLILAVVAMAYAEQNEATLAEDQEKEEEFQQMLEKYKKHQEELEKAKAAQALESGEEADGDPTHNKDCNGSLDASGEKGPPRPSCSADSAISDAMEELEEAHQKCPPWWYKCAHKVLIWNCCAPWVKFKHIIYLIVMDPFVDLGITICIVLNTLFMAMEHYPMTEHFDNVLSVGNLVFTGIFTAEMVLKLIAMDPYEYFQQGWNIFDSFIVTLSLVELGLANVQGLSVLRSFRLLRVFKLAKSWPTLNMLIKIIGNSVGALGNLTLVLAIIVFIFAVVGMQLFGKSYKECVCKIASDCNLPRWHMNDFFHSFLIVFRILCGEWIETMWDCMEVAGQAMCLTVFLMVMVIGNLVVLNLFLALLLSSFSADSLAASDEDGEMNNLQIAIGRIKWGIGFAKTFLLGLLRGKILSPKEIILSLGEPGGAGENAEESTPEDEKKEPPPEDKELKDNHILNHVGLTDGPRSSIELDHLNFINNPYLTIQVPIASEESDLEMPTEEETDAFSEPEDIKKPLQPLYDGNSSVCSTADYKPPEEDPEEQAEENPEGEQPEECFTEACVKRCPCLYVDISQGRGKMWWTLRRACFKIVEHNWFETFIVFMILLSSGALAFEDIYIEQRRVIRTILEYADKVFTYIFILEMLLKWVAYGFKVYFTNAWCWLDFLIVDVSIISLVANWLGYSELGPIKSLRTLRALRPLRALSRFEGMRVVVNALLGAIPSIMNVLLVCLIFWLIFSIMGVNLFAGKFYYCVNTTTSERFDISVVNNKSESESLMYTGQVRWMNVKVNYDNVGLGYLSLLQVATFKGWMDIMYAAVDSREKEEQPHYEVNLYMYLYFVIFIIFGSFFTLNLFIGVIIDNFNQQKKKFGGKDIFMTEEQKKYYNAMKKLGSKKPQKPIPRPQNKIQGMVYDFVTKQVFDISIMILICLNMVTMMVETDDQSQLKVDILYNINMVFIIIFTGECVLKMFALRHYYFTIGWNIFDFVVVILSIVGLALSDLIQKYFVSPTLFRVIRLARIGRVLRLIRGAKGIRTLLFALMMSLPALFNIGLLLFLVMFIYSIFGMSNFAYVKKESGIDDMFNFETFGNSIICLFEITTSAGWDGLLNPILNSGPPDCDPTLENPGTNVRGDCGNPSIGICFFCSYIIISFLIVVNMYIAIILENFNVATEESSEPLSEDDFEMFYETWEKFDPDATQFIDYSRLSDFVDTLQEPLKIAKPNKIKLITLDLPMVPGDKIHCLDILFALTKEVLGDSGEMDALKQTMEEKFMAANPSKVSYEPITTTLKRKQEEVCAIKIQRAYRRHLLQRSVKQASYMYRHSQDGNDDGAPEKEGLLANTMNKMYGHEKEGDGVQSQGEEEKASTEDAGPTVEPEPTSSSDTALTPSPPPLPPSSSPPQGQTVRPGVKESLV
compound,measurement,setting,value
CCN1CC2(COC)C3[C@H](OC)C4C1C3(C1C[C@@]3(O)[C@H](OC(=O)c5cc6ccccc6oc5=O)C1[C@]4(OC(C)=O)[C@@H](O)[C@@H]3OC)[C@@H](OC)C[C@H]2O (some centres unmarked) [4.8g],Steady-state inactivation V0.5 (mV),[1]; 75 μM,−75.6 mV
same,Steady-state inactivation k (slope factor at midpoint),[1]; 75 μM,11.6
same,steady-state inactivation V0.5,[1]; concentration not given,−76 mV
same,shift of steady-state inactivation V0.5 compared to the unmodified NaV channel,"[1]; toward hyperpolarized potentials, concentration not given",23 mV
same,Current after wash-off (%),[2]; after wash-off of 20 μM,83%
same,Current after wash-off (%),[2]; after wash-off of 75 μM,31%
same,reversibility of binding upon wash-off,[2],did not restore substantial current
same,concentration required to achieve the current levels observed with 20 μM aconitine,[3],75 µM
same,% Remaining current after reaching steady-state binding,[3]; 20 μM,79%
same,peak current blocked at steady state,[3]; 20 μM,21%
same,Current measured at 20 μM (%),[3]; 20 μM,79%
same,depolarizing pulses required to reach steady-state block,[3]; 20 μM,over 2500 pulses
same,% Remaining current after reaching steady-state binding,[3]; 75 μM,23%
same,peak current blocked at steady state,[3]; 75 μM,77%
same,Current measured at 75 μM (%),[3]; 75 μM,23%
same,depolarizing pulses required to reach steady-state block,[3]; 75 μM,over 3000 pulses
same,Activation V0.5 (mV),[4]; 75 μM,−36 mV
same,Activation hg,[4]; 75 μM,8.9
CCN1CC2(COC)C3C(OC)C4C1C3(C1C[C@@]3(O)[C@H](OC(=O)c5ccccc5N=[N+]=[N-])[C@@H]1[C@]4(OC(C)=O)[C@@H](O)[C@@H]3OC)[C@@H](OC)C[C@H]2O (some centres unmarked) [4.8f],% Remaining current after reaching steady-state binding,[3]; 50 μM,22%
CCN1CC2(COC)C3C(OC)C4C1C3(C1C[C@@]3(O)[C@H](OC(=O)c5ccc6ccccc6c5)[C@@H]1[C@]4(OC(C)=O)[C@@H](O)[C@@H]3OC)[C@@H](OC)C[C@H]2O (some centres unmarked) [4.8c],Current after wash-off (%),[2]; after wash-off of 20 μM,4%
same,Current after wash-off (%),[2]; after wash-off of 73 μM (footnote b),3^b %
same,reversibility of binding upon wash-off,[2],did not restore substantial current; also recorded: completely irreversible
same,% Remaining current after reaching steady-state binding,[3]; 5 μM,38%
same,% Remaining current after reaching steady-state binding,[3]; 20 μM,5%
same,peak current blocked at steady state,[3]; 20 μM,around 95%
same,Current measured at 20 μM (%),[3]; 20 μM,3%
same,depolarizing pulses required to reach steady-state block,[3]; 20 μM,800 pulses
same,peak current blocked at steady state,[3]; 73 μM,over 97%
same,Current measured at 75 μM (%),[3]; 73 μM (footnote b),3^b %
same,% Remaining current after reaching steady-state binding,"[3]; 73 μM (footnote c, 75 μM column)",3^c %
same,depolarizing pulses required to reach steady-state block,[3]; 73 μM,≤ 300 pulses
same,% Remaining current after reaching steady-state binding,[3]; 200 μM,3%
same,current observed at steady state,[3]; concentrations of 20 μM and above,≤ 5%
same,Activation V0.5 (mV),[4]; 5 μM,−23.1 mV
same,Activation hg,[4]; 5 μM,13.1
